Read-outs that look alike come from different tables or passages of the source.
What was measured:
obese female Zucker rats = assay: Oral daily treatment of obese female Zucker rats for 14 days (body weight, serum lipids, glucose, insulin); format: in vivo, rat; design: HDL-C / Glucose / Insulin / NEFA / BHA / TG / TC / Non HDL-C: unit not given here
Method: The dosing vehicle was administered to control animals in parallel experiments.
Body weight was determined daily prior to dosing. Animals were allowed free access to rodent chow and water throughout the study. Blood glucose was determined after a 6-hour fast in the afternoon without anesthesia from a tail vein. Serum was also prepared from a blood sample subsequently obtained from the orbital venous plexus (with O2/CO2 anesthesia) prior to and after one week treatment and used lipid and insulin determinations. At two weeks, blood glucose was again determined after a 6-hour fast without anesthesia from a tail vein. Soon thereafter, animals were sacrificed by CO2 inhalation in the afternoon and cardiac blood serum was collected and assessed for various lipids and insulin.

primary rat hepatocytes = assay: Synthesis of total lipids (14C-acetate labeling) in primary rat hepatocytes; format: cell-based; conditions: rat hepatocyte cells, 14C-acetate 4 hr, vs vehicle control
Method: A male Sprague-Dawley rate was anesthetized by administration of sodium pentobarbitol by intraperitoneal at 80 mg/kg. In situ perfusion of the liver was performed as follows. The abdomen of the animal was opened, the portal vein canulated, and the liver perfused with WOSH solution (149 mM NaCl, 9.2 mM Na HEPES, 1.7 mM Fructose, 0.5 mM EGTA, 0.029 mM Phenol red, 10 U/ml heparin, pH 7.5) at a flow rate of 30 ml/min for 6 minutes. To digest the liver, DSC solution (6.7 mM KCl, 143 mM NaCl, 9.2 mM Na HEPES, 5 mM CaCl2-2H2O, 1.7 mM Fructose, 0.029 mM Phenol red, 0.2% BSA, 100 U/ml collagenase Type 1,160 BAEE/ml trypsin inhibitor, pH 7.5) was perfused through the liver at a flow rate of 30 ml/min for 6 minutes at a temperature of 37° C. After digestion, cells were dispersed in a solution of DMEM-(DMEM containing 2 mM GlutMax-1, 0.2% BSA, 5% FBS, 12 nM insulin, 1.2 μM hydrocortisone) to stop the digestion process. The crude cell suspension was filtered through three layers of stainless steel mesh with pore sizes of 250, 106, and 75 μm respectively. Filtered cells were centrifuged at 50×g for two minutes and the supernatant discarded. The resulting cell pellet was resuspended in DMEM and centrifuged again. This final cell pellet was resuspended in DMEM+HS solution (DMEM containing 2 mM GlutMax-1, 20 mM delta-aminolevulinic acid, 17.4 mM MEM nonessential amino acids, 20% FBS, 12 nM insulin, 1.2 μM hydrocortisone) and plated to form monolayer cultures at a density of 100×10^3 cells/cm^2 on collagen coated culture dishes.
To test the effect of an illustrative compound of the invention on synthesis rates of total lipids, the monolayer cultures were exposed to 1, 3, 10, 30, 100, or 300 μM of Compound A or 10 μM of Compound 1 in DMEM+containing 1 μCi/ml 14C-acetate, D-glucose, hepes, glutamine, leucine, alanine, lactate, pyruvate, non-essential amino acids, BSA, and gentamicine. Control cells were exposed to the same media lacking lovastatin or the test compounds. All cells were exposed to 0.1% DMSO. Metabolic labeling with ^14C-acetate continued for 4 hr at 37° C. After labeling, cells were washed twice with 1 mL of PBS followed by addition of scintallant (Microscent E) and counted on Topcount®.

[1] = obese female Zucker rats, oral gavage daily 14 days, 100 mg/kg
[2] = obese female Zucker rats, oral, 14 days, 100 mg/kg/day (Table 1)

SMILES: CC(C)(CCCCOCCCCC(C)(C)COP(=O)(O)O)COP(=O)(O)O.N.N.N.N [Compound A]
- melting point: 185 to 186 °C
- serum insulin relative to pretreatment (obese female Zucker rats; fasted obese female Zucker rats, two weeks of treatment, 100 mg/kg): rose slightly
- liver to body weight (obese female Zucker rats; [1]): increased
- serum non-esterified fatty acids (obese female Zucker rats; [1]): reduced
- serum total cholesterol (obese female Zucker rats; [1]): elevated
- serum triglycerides (obese female Zucker rats; [1]): reduced
- weight gain, percent of initial weight after two weeks (obese female Zucker rats; [1]): 1%
- β-hydroxy butyrate levels (obese female Zucker rats; [1]): elevated
- BHA (obese female Zucker rats; [2]): 1 ± 0.5
- Glucose (obese female Zucker rats; [2]): 5.6 ± 4.2
- HDL-C (obese female Zucker rats; [2]): 186.7 ± 51.5
- Insulin (obese female Zucker rats; [2]): 10.6 ± 26.3
- NEFA (obese female Zucker rats; [2]): 0.059 ± 0.003
- Non HDL-C (obese female Zucker rats; [2]): −30.6 ± 15.4
- TC (obese female Zucker rats; [2]): −85.7 ± 1.2
- TG (obese female Zucker rats; [2]): 833.8 ± 209.9
- ratio of non-HDL cholesterol to HDL cholesterol content (obese female Zucker rats; obese female Zucker rats, relative to control and reference compound-treated animals, 100 mg/kg): improved
- HDL-cholesterol elevation (obese female Zucker rats; obese female Zucker rats, two-week treatment, 100 mg/kg): 9 fold
- body weight increases (obese female Zucker rats; obese female Zucker rats, versus reference compound-treated animals, 100 mg/kg): did not cause the body weight increases
- reduction of rates of total lipid synthesis (primary rat hepatocytes; 3 μM): at least 97%
- reduction of rates of total lipid synthesis (primary rat hepatocytes; 10 μM): at least 97%

SMILES: CC(C)(CCCCCC(=O)CCCCCC(C)(C)COP(=O)(O)O)COP(=O)(O)O.N.N [Compound E, Phosphoric Acid mono-(2,2,14,14-tetramethyl-8-oxo-15-phosphonooxy-pentadecyl) Ester, Diammonium Salt]
- melting point: 187 to 189 °C
- change in vivo at 10 mg/kg/day (obese female Zucker rats; Rattus norvegicus, 336 h, obese female Zucker rats, oral daily, fourteen days, 10 mg/kg/day, read-out: % wt. gain): 11%
- change in vivo at 10 mg/kg (obese female Zucker rats; Rattus norvegicus, 336 h, obese female Zucker rats, oral daily, fourteen days, 10 mg/kg/day, read-out: BHA, Percent Change from Pre-treatment): 140%
- change in vivo at 10 mg/kg (obese female Zucker rats; Rattus norvegicus, 336 h, obese female Zucker rats, oral daily, fourteen days, 10 mg/kg/day, read-out: Glucose, Percent Change from Pre-treatment): -6%
- change in vivo at 10 mg/kg (obese female Zucker rats; Rattus norvegicus, 336 h, obese female Zucker rats, oral daily, fourteen days, 10 mg/kg/day, read-out: HDL-C, Percent Change from Pre-treatment): 129%
- change in vivo at 10 mg/kg (obese female Zucker rats; Rattus norvegicus, 336 h, obese female Zucker rats, oral daily, fourteen days, 10 mg/kg/day, read-out: Insulin, Percent Change from Pre-treatment): 25%
- change in vivo at 10 mg/kg (obese female Zucker rats; Rattus norvegicus, 336 h, obese female Zucker rats, oral daily, fourteen days, 10 mg/kg/day, read-out: NEFA, Percent Change from Pre-treatment): -5%
- change in vivo at 10 mg/kg (obese female Zucker rats; Rattus norvegicus, 336 h, obese female Zucker rats, oral daily, fourteen days, 10 mg/kg/day, read-out: Non HDL-C, Percent Change from Pre-treatment): 6%
- change in vivo at 10 mg/kg (obese female Zucker rats; Rattus norvegicus, 336 h, obese female Zucker rats, oral daily, fourteen days, 10 mg/kg/day, read-out: TC, Percent Change from Pre-treatment): 3%
- change in vivo at 10 mg/kg (obese female Zucker rats; Rattus norvegicus, 336 h, obese female Zucker rats, oral daily, fourteen days, 10 mg/kg/day, read-out: TG, Percent Change from Pre-treatment): 39%
- change in vivo at 30 mg/kg/day (obese female Zucker rats; Rattus norvegicus, 336 h, obese female Zucker rats, oral daily, fourteen days, 30 mg/kg/day, read-out: % wt. gain): 10%
- change in vivo at 30 mg/kg (obese female Zucker rats; Rattus norvegicus, 336 h, obese female Zucker rats, oral daily, fourteen days, 30 mg/kg/day, read-out: BHA, Percent Change from Pre-treatment): 73%
- change in vivo at 30 mg/kg (obese female Zucker rats; Rattus norvegicus, 336 h, obese female Zucker rats, oral daily, fourteen days, 30 mg/kg/day, read-out: Glucose, Percent Change from Pre-treatment): -1%
- change in vivo at 30 mg/kg (obese female Zucker rats; Rattus norvegicus, 336 h, obese female Zucker rats, oral daily, fourteen days, 30 mg/kg/day, read-out: HDL-C, Percent Change from Pre-treatment): 174%
- change in vivo at 30 mg/kg (obese female Zucker rats; Rattus norvegicus, 336 h, obese female Zucker rats, oral daily, fourteen days, 30 mg/kg/day, read-out: Insulin, Percent Change from Pre-treatment): -12%
- change in vivo at 30 mg/kg (obese female Zucker rats; Rattus norvegicus, 336 h, obese female Zucker rats, oral daily, fourteen days, 30 mg/kg/day, read-out: NEFA, Percent Change from Pre-treatment): -28%
- change in vivo at 30 mg/kg (obese female Zucker rats; Rattus norvegicus, 336 h, obese female Zucker rats, oral daily, fourteen days, 30 mg/kg/day, read-out: Non HDL-C, Percent Change from Pre-treatment): 51%
- change in vivo at 30 mg/kg (obese female Zucker rats; Rattus norvegicus, 336 h, obese female Zucker rats, oral daily, fourteen days, 30 mg/kg/day, read-out: TC, Percent Change from Pre-treatment): 126%
- change in vivo at 30 mg/kg (obese female Zucker rats; Rattus norvegicus, 336 h, obese female Zucker rats, oral daily, fourteen days, 30 mg/kg/day, read-out: TG, Percent Change from Pre-treatment): -2%
- change in vivo at 100 mg/kg/day (obese female Zucker rats; Rattus norvegicus, 336 h, obese female Zucker rats, oral daily, fourteen days, 100 mg/kg/day, read-out: % wt. gain): 4%
- change in vivo at 100 mg/kg (obese female Zucker rats; Rattus norvegicus, 336 h, obese female Zucker rats, oral daily, fourteen days, 100 mg/kg/day, read-out: BHA, Percent Change from Pre-treatment): 134%
- change in vivo at 100 mg/kg (obese female Zucker rats; Rattus norvegicus, 336 h, obese female Zucker rats, oral daily, fourteen days, 100 mg/kg/day, read-out: Glucose, Percent Change from Pre-treatment): -4%
- change in vivo at 100 mg/kg (obese female Zucker rats; Rattus norvegicus, 336 h, obese female Zucker rats, oral daily, fourteen days, 100 mg/kg/day, read-out: HDL-C, Percent Change from Pre-treatment): 246%
- change in vivo at 100 mg/kg (obese female Zucker rats; Rattus norvegicus, 336 h, obese female Zucker rats, oral daily, fourteen days, 100 mg/kg/day, read-out: Insulin, Percent Change from Pre-treatment): -15%
- change in vivo at 100 mg/kg (obese female Zucker rats; Rattus norvegicus, 336 h, obese female Zucker rats, oral daily, fourteen days, 100 mg/kg/day, read-out: NEFA, Percent Change from Pre-treatment): -40%
- change in vivo at 100 mg/kg (obese female Zucker rats; Rattus norvegicus, 336 h, obese female Zucker rats, oral daily, fourteen days, 100 mg/kg/day, read-out: Non HDL-C, Percent Change from Pre-treatment): 20%
- change in vivo at 100 mg/kg (obese female Zucker rats; Rattus norvegicus, 336 h, obese female Zucker rats, oral daily, fourteen days, 100 mg/kg/day, read-out: TC, Percent Change from Pre-treatment): 161%
- change in vivo at 100 mg/kg (obese female Zucker rats; Rattus norvegicus, 336 h, obese female Zucker rats, oral daily, fourteen days, 100 mg/kg/day, read-out: TG, Percent Change from Pre-treatment): -51%

Reference: patent publication US20030236212A1, “Functionalized long chain derivatives as acyl coenzyme-A mimics, compositions thereof, and methods of cholesterol management and related uses” (priority 2002, published 2003)
